Several values for one entry are separate records, joined by “and”; a condition that tells them apart may be missing. Equal entries are not always repeated.
Legend:
Type in all cases: functional
[1] = system: Stellaria media; assay: Herbicidal activity against Stellaria media assessed as killing at 10 g/a at 25 degC measured after 2 weeks
[2] = system: Echinochloa oryzicola; assay: Herbicidal activity against Echinochloa oryzicola assessed as killing at 1 g/a at 25 degC measured after 3 weeks
[3] = system: Pontederia vaginalis; assay: Herbicidal activity against Monochoria vaginalis assessed as killing at 1 g/a at 25 degC measured after 3 weeks
[4] = system: Amaranthus blitum subsp. oleraceus; assay: Herbicidal activity against Amaranthus blitum subsp. oleraceus assessed as killing at 2.5 g/a at 25 degC measured after 2 weeks
[5] = system: Stellaria media; assay: Herbicidal activity against Stellaria media assessed as killing at 2.5 g/a at 25 degC measured after 2 weeks
[6] = system: Schoenoplectiella juncoides; assay: Herbicidal activity against Schoenoplectiella juncoides assessed as killing at 10 g/a at 25 degC measured after 3 weeks
[7] = system: Kummerowia striata; assay: Herbicidal activity against Kummerowia striata assessed as killing at 10 g/a at 25 degC measured after 2 weeks
[8] = system: Pontederia vaginalis; assay: Herbicidal activity against Monochoria vaginalis assessed as killing at 10 g/a at 25 degC measured after 3 weeks
[9] = Herbicidal activity against annual broad-leaf weeds assessed as killing at 1 g/a at 25 degC measured after 3 weeks
[10] = system: Setaria viridis; assay: Herbicidal activity against Setaria viridis (green foxtail) assessed as killing at 2.5 g/a at 25 degC measured after 2 weeks
[11] = system: Amaranthus blitum subsp. oleraceus; assay: Herbicidal activity against Amaranthus blitum subsp. oleraceus assessed as killing at 10 g/a at 25 degC measured after 2 weeks
[12] = system: Digitaria ciliaris; assay: Herbicidal activity against Digitaria ciliaris assessed as killing at 2.5 g/a at 25 degC measured after 2 weeks
[13] = system: Digitaria ciliaris; assay: Herbicidal activity against Digitaria ciliaris assessed as killing at 10 g/a at 25 degC measured after 2 weeks
[14] = system: Poa annua; assay: Herbicidal activity against Poa annua assessed as killing at 10 g/a at 25 degC measured after 2 weeks
[15] = system: Schoenoplectiella juncoides; assay: Herbicidal activity against Schoenoplectiella juncoides assessed as killing at 1 g/a at 25 degC measured after 3 weeks
[16] = system: Kummerowia striata; assay: Herbicidal activity against Kummerowia striata assessed as killing at 2.5 g/a at 25 degC measured after 2 weeks
[17] = Herbicidal activity against annual broad-leaf weeds assessed as killing at 10 g/a at 25 degC measured after 3 weeks
[18] = system: Echinochloa oryzicola; assay: Herbicidal activity against Echinochloa oryzicola assessed as killing at 10 g/a at 25 degC measured after 3 weeks
[19] = system: Setaria viridis; assay: Herbicidal activity against Setaria viridis (green foxtail) assessed as killing at 10 g/a at 25 degC measured after 2 weeks
[20] = system: Cyperus difformis; assay: Herbicidal activity against Cyperus difformis assessed as killing at 1 g/a at 25 degC measured after 3 weeks
[21] = system: Poa annua; assay: Herbicidal activity against Poa annua assessed as killing at 2.5 g/a at 25 degC measured after 2 weeks
[22] = system: Cyperus difformis; assay: Herbicidal activity against Cyperus difformis assessed as killing at 10 g/a at 25 degC measured after 3 weeks

COCCN(C(=O)CCl)C(=C(C)C)c1ccccc1
Activity [1]: 80% | Activity [2]: 100% | Activity [3]: 100% | Activity [4]: 60% | Activity [5]: 60% | Activity [6]: 100% | Activity [7]: 80% | Activity [8]: 100% | Activity [9]: 100% | Activity [10]: 80% | Activity [11]: 100% | Activity [12]: 100% | Activity [13]: 100% | Activity [14]: 100% | Activity [15]: 100% | Activity [16]: 80% | Activity [17]: 100% | Activity [18]: 100% | Activity [19]: 100% | Activity [20]: 100% | Activity [21]: 100% | Activity [22]: 100%

CCc1cccc(CC)c1N(COC)C(=O)CCl [ALACHLOR]
Activity [1]: 80% | Activity [4]: 80% | Activity [5]: 40% | Activity [7]: 80% | Activity [10]: 80% | Activity [11]: 100% | Activity [12]: 100% | Activity [13]: 100% | Activity [14]: 100% | Activity [16]: 60% | Activity [19]: 100% | Activity [21]: 80%

CCc1cccc(C)c1N(C(=O)CCl)C(C)COC (configuration not stated) [METOLACHOR]
Activity [1]: 60% | Activity [4]: 100% | Activity [5]: 60% | Activity [7]: 80% | Activity [10]: 80% | Activity [11]: 80% | Activity [12]: 100% | Activity [13]: 100% | Activity [14]: 100% | Activity [16]: 100% | Activity [19]: 100% | Activity [21]: 80%

CCOCCN(C(=O)CCl)C(=C(C)C)c1ccccc1 [PETHOXAMID]
Activity [1]: 100% | Activity [2]: 100% | Activity [3]: 100% | Activity [4]: 100% | Activity [5]: 80% | Activity [6]: 100% | Activity [7]: 80% | Activity [8]: 100% | Activity [10]: 100% | Activity [11]: 100% | Activity [12]: 100% | Activity [13]: 100% | Activity [14]: 100% | Activity [15]: 100% | Activity [16]: 80% | Activity [17]: 100% | Activity [18]: 100% | Activity [19]: 100% | Activity [20]: 100% | Activity [21]: 80% | Activity [22]: 100%

C#CCOCCN(C(=O)CCl)C(=C(C)C)c1ccccc1
Activity [2]: 100% | Activity [3]: 100% | Activity [6]: 100% | Activity [8]: 100% | Activity [9]: 100% | Activity [15]: 80% | Activity [17]: 100% | Activity [18]: 100% | Activity [20]: 100% | Activity [22]: 100%

COCCN(C(=O)CCl)C(=C(C)C)c1ccccc1Cl
Activity [2]: 80% | Activity [3]: 0% | Activity [6]: 100% | Activity [8]: 100% | Activity [9]: 0% | Activity [15]: 80% | Activity [17]: 100% | Activity [18]: 100% | Activity [20]: 100% | Activity [22]: 100%

COCCCN(C(=O)CCl)C(=C(C)C)c1ccccc1
Activity [2]: 60% | Activity [3]: 100% | Activity [6]: 100% | Activity [8]: 100% | Activity [9]: 0% | Activity [15]: 40% | Activity [17]: 100% | Activity [18]: 100% | Activity [20]: 60% | Activity [22]: 100%

CCC=C(c1ccccc1)N(CCOC)C(=O)CCl
Activity [2]: 60% | Activity [3]: 0% | Activity [6]: 100% | Activity [8]: 100% | Activity [9]: 0% | Activity [15]: 0% | Activity [17]: 80% | Activity [18]: 100% | Activity [20]: 80% | Activity [22]: 100%

COCCN(C(=O)CCl)C(=C(C)C)c1ccc(C)cc1C
Activity [2]: 60% | Activity [3]: 0% | Activity [6]: 100% | Activity [8]: 100% | Activity [9]: 0% | Activity [15]: 80% | Activity [17]: 80% | Activity [18]: 100% | Activity [20]: 80% | Activity [22]: 100%

COCCN(C(=O)CCl)C(=C1CCCCC1)c1ccccc1
Activity [2]: 20% | Activity [3]: 0% | Activity [6]: 100% | Activity [8]: 100% | Activity [9]: 60% | Activity [15]: 0% | Activity [17]: 80% | Activity [18]: 100% | Activity [20]: 0% | Activity [22]: 100%

COCCN(C(=O)CCl)C(=C(C)C)c1cccc(Oc2ccccc2)c1
Activity [2]: 100% | Activity [3]: 0% | Activity [6]: 60% | Activity [8]: 100% | Activity [9]: 40% | Activity [15]: 60% | Activity [17]: 100% | Activity [18]: 100% | Activity [20]: 80% | Activity [22]: 100%

COCCN(C(=O)CCl)C(=C(C)C)c1cc(C)ccc1C
Activity [2]: 100% | Activity [3]: 40% | Activity [6]: 100% | Activity [8]: 100% | Activity [9]: 20% | Activity [15]: 80% | Activity [17]: 100% | Activity [18]: 100% | Activity [20]: 80% | Activity [22]: 100%

COCCN(C(=O)CCl)C(=C(C)C)c1cccs1
Activity [2]: 100% | Activity [3]: 100% | Activity [6]: 100% | Activity [8]: 100% | Activity [9]: 0% | Activity [15]: 100% | Activity [17]: 100% | Activity [18]: 100% | Activity [20]: 100% | Activity [22]: 100%

C=CCOCCN(C(=O)CCl)C(=C(C)C)c1ccccc1
Activity [2]: 100% | Activity [3]: 100% | Activity [6]: 100% | Activity [8]: 100% | Activity [9]: 100% | Activity [15]: 100% | Activity [17]: 100% | Activity [18]: 100% | Activity [20]: 100% | Activity [22]: 100%

C=CCOCC(C)N(C(=O)CCl)C(=C(C)C)c1ccccc1 (configuration not stated)
Activity [2]: 40% | Activity [3]: 40% | Activity [6]: 100% | Activity [8]: 100% | Activity [9]: 100% | Activity [15]: 60% | Activity [17]: 100% | Activity [18]: 100% | Activity [20]: 60% | Activity [22]: 100%

COCCN(C(=O)CCl)C(=C(C)C)c1ccc(Br)s1
Activity [2]: 100% | Activity [3]: 60% | Activity [6]: 100% | Activity [8]: 100% | Activity [9]: 80% | Activity [15]: 60% | Activity [17]: 100% | Activity [18]: 100% | Activity [20]: 80% | Activity [22]: 100%

COC(CN(C(=O)CCl)C(=C(C)C)c1ccccc1)OC
Activity [2]: 40% | Activity [3]: 0% | Activity [6]: 100% | Activity [8]: 100% | Activity [9]: 80% and 100% | Activity [15]: 0% | Activity [17]: 100% | Activity [18]: 100% | Activity [20]: 100% | Activity [22]: 100%

COCCN(C(=O)CCl)C(=C(C)C)c1ccc(Oc2ccccc2)cc1
Activity [2]: 100% | Activity [3]: 100% | Activity [6]: 100% | Activity [8]: 100% | Activity [9]: 100% | Activity [15]: 60% | Activity [17]: 100% | Activity [18]: 100% | Activity [20]: 100% | Activity [22]: 100%

COCCN(C(=O)CCl)C(=C(C)C)c1ccccc1C
Activity [2]: 80% | Activity [3]: 0% | Activity [6]: 100% | Activity [8]: 80% | Activity [9]: 80% | Activity [15]: 0% | Activity [17]: 80% | Activity [18]: 100% | Activity [20]: 80% | Activity [22]: 100%
